Experimental data reported in ChEMBL document CHEMBL5291721, “A preclinical secondary pharmacology resource illuminates target-adverse drug reaction associations of marketed drugs” (Nat Commun, 2023).

Legend:
Acetylcholinesterase = Acetylcholinesterase (Homo sapiens, UniProt P22303); type: functional
Adenosine receptor A3 = target: T1, Adenosine receptor A3 (Homo sapiens, UniProt P0DMS8)
T1 sequence (P0DMS8 whole entry): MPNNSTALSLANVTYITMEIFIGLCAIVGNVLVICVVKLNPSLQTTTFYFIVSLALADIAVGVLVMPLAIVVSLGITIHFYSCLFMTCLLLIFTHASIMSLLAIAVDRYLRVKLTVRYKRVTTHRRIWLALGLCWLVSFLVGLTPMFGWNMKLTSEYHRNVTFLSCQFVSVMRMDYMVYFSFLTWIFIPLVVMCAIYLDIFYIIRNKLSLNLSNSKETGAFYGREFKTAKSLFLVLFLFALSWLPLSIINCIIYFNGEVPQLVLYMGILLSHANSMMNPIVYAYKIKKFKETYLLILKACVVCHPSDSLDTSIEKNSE

[1] = target: T2, Alpha-1A adrenergic receptor (Homo sapiens, UniProt P35348); type: functional, cell-based
T2 sequence (P35348 whole entry): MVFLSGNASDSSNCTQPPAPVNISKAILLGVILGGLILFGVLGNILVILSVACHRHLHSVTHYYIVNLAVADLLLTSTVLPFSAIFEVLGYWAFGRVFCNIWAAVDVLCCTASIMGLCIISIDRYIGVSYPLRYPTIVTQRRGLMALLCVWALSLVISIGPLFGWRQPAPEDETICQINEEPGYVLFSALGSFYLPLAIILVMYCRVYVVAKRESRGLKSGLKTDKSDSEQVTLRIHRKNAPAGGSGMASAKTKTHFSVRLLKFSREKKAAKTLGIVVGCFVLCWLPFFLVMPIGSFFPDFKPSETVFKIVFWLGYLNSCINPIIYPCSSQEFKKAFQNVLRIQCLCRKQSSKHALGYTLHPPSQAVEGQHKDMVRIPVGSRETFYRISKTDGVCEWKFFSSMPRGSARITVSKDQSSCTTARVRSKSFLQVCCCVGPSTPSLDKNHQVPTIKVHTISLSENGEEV

D(1A) dopamine receptor = D(1A) dopamine receptor (Homo sapiens, UniProt P21728)
D(3) dopamine receptor = D(3) dopamine receptor (Homo sapiens, UniProt P35462)
Prothrombin = Prothrombin (Homo sapiens, UniProt P00734); type: functional
Histamine H3 receptor = Histamine H3 receptor (Homo sapiens, UniProt Q9Y5N1)
[2] = target: 5-hydroxytryptamine receptor 2B (Homo sapiens, UniProt P41595); type: functional, cell-based
[3] = target: Voltage-gated inwardly rectifying potassium channel KCNH2 (Homo sapiens, UniProt Q12809); type: functional; settings: read-out: AC50
Mu-type opioid receptor = Mu-type opioid receptor (Homo sapiens, UniProt P35372)
Progesterone receptor = target: T3, Progesterone receptor (Homo sapiens, UniProt P06401)
T3 sequence (P06401 whole entry): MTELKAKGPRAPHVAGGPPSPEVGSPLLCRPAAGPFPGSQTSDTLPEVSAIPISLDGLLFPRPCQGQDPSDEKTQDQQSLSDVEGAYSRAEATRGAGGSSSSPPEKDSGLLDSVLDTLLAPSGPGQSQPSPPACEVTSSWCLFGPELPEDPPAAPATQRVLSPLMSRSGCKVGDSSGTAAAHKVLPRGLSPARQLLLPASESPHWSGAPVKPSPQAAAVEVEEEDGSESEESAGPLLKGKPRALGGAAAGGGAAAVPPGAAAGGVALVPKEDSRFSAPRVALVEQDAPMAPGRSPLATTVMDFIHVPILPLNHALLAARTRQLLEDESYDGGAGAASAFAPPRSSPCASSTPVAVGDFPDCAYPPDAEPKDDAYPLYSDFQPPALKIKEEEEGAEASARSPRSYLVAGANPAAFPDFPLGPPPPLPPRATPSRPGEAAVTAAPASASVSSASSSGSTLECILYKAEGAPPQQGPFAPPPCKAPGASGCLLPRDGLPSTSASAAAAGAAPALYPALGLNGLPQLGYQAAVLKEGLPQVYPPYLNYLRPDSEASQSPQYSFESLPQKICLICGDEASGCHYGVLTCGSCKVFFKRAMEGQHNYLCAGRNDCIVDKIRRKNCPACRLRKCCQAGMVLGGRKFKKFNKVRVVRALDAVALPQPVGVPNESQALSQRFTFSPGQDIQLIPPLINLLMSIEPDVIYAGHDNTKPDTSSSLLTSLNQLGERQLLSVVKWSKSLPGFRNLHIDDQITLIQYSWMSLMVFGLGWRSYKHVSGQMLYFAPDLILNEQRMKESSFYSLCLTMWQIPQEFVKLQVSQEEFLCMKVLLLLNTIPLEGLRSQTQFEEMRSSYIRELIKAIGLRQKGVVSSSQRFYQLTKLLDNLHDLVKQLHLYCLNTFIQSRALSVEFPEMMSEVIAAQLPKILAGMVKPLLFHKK

[4] = target: T4, Prostaglandin G/H synthase 1 (Homo sapiens, UniProt P23219); type: functional
[5] = target: T4, Prostaglandin G/H synthase 1; type: functional; remark: listed apart in the source
[6] = target: Sodium-dependent dopamine transporter (Homo sapiens, UniProt Q01959)
[7] = target: Sodium-dependent serotonin transporter (Homo sapiens, UniProt P31645)
Thromboxane A2 receptor [8] = target: T5, Thromboxane A2 receptor (Homo sapiens, UniProt P21731); type: functional, cell-based
T5 sequence (P21731 whole entry): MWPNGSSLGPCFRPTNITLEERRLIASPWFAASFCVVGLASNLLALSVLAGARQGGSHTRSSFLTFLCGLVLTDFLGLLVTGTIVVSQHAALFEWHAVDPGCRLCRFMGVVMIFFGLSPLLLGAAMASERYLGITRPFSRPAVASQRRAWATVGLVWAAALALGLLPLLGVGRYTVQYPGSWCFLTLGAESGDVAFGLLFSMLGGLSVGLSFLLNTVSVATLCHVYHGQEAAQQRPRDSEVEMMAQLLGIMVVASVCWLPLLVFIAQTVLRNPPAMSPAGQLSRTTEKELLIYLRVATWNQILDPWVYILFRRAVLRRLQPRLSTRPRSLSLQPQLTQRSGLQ

Thromboxane A2 receptor [9] = target: T5, Thromboxane A2 receptor; type: functional, cell-based; remark: listed apart in the source
Note: assay procedure not described here.

Sequence of Sodium-dependent dopamine transporter (Q01959 whole entry): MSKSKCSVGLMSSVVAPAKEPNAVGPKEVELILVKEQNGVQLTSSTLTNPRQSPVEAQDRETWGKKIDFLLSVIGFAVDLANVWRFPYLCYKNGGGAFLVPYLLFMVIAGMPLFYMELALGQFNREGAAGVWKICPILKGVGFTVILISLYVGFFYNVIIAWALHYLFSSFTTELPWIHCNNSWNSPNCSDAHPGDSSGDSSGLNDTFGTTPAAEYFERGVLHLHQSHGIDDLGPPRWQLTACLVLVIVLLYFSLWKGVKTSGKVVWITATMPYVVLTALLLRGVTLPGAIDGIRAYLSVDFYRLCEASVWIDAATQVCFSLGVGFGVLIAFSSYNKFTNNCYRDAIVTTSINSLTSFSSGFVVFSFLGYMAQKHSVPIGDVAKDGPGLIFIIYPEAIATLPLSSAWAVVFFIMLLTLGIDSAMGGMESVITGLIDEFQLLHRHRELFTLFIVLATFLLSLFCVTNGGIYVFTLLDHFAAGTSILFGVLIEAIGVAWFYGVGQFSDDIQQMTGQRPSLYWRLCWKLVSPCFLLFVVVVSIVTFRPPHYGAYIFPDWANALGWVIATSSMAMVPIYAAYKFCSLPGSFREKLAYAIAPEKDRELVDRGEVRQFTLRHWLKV
T4 sequence (P23219 whole entry): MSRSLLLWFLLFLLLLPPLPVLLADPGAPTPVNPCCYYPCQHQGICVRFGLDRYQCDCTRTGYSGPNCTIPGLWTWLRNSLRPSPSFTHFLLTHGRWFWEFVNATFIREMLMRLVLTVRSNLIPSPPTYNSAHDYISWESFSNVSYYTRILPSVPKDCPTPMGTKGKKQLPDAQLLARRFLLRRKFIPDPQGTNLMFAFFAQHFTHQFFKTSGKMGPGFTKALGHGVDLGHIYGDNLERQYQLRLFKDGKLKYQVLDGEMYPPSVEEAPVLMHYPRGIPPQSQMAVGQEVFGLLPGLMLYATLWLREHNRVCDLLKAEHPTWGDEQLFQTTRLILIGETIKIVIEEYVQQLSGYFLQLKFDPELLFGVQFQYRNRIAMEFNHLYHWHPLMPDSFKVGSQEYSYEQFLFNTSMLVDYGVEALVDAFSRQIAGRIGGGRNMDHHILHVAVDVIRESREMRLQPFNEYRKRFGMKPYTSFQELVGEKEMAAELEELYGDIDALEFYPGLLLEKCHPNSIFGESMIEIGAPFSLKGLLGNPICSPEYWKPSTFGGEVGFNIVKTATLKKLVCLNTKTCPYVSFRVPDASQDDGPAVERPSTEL
Sequence of Histamine H3 receptor (Q9Y5N1 whole entry): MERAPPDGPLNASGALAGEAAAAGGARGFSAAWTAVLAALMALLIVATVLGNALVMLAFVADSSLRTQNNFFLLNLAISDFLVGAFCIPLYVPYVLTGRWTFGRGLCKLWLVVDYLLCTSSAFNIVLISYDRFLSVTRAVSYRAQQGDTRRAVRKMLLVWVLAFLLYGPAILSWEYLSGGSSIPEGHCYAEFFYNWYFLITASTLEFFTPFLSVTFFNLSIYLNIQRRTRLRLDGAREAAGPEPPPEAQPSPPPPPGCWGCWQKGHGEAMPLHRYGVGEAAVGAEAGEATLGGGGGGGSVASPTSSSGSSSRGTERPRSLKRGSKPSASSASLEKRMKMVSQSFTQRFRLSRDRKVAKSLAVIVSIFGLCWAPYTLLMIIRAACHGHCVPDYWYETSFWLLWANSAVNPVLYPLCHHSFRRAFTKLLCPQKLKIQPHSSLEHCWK
Sequence of Acetylcholinesterase (P22303 whole entry): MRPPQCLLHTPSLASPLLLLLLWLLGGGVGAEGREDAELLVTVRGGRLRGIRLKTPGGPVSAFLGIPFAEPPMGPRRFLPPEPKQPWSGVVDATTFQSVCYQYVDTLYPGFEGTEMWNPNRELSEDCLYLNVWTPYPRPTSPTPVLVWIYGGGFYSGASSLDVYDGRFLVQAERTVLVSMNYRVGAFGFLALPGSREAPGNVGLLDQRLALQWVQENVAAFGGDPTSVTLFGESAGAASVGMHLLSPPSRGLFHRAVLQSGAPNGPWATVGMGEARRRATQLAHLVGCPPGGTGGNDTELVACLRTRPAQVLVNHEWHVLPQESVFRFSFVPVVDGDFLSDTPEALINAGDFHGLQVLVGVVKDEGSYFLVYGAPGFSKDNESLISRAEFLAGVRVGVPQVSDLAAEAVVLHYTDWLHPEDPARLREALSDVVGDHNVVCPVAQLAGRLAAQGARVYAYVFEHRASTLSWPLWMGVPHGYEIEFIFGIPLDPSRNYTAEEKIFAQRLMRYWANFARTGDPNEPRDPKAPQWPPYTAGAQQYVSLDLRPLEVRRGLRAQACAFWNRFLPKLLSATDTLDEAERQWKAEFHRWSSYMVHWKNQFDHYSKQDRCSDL
Sequence of D(1A) dopamine receptor (P21728 whole entry): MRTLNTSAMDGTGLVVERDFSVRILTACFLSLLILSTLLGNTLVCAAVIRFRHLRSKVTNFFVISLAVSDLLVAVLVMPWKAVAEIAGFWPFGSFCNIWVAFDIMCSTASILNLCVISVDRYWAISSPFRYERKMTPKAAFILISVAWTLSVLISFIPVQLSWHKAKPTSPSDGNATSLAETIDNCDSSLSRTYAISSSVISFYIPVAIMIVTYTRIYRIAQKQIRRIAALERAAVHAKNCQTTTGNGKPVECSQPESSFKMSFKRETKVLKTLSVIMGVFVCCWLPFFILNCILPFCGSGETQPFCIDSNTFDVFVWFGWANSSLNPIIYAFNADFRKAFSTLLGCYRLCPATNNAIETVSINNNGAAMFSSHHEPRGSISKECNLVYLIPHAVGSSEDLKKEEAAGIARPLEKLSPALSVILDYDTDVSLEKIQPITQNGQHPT
Sequence of D(3) dopamine receptor (P35462 whole entry): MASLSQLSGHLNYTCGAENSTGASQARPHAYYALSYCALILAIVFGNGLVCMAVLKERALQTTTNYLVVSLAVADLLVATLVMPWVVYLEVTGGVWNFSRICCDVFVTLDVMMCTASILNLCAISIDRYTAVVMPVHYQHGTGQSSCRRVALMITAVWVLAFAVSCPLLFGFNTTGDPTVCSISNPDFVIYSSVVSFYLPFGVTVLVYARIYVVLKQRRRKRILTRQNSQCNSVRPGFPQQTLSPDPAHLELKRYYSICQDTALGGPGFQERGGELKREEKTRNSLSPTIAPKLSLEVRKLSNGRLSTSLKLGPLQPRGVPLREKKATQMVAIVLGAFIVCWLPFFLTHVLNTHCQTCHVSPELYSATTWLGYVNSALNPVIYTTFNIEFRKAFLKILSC
Sequence of Voltage-gated inwardly rectifying potassium channel KCNH2 (Q12809 whole entry): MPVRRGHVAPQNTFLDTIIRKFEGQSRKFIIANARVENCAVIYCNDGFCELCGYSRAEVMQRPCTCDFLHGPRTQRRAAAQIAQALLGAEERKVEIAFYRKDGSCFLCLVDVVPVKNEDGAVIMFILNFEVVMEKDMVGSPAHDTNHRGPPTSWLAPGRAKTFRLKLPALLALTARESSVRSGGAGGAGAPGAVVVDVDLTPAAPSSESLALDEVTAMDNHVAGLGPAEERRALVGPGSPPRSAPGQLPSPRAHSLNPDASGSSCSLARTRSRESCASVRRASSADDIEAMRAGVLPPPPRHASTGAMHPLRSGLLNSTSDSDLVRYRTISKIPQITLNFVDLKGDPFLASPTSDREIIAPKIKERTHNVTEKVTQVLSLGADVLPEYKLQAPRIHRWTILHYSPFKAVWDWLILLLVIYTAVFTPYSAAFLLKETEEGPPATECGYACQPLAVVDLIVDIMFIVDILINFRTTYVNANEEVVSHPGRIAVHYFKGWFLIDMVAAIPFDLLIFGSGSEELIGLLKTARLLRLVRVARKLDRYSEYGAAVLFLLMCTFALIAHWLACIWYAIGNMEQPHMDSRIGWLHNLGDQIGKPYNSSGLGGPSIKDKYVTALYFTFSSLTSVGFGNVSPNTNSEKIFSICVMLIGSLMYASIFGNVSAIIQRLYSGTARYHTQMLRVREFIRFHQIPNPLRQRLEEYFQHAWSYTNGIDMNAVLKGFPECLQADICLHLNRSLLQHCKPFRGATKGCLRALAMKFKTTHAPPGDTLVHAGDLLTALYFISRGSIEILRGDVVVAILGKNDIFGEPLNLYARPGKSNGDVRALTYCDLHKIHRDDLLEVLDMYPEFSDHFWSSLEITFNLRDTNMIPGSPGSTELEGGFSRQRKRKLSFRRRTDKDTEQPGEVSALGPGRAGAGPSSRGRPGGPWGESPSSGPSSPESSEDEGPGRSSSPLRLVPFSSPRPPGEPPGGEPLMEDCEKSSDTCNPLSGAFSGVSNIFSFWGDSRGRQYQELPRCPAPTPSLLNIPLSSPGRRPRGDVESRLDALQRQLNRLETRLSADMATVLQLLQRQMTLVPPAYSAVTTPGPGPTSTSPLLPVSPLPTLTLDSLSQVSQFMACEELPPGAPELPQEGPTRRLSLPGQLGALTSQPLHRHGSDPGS
Sequence of 5-hydroxytryptamine receptor 2B (P41595 whole entry): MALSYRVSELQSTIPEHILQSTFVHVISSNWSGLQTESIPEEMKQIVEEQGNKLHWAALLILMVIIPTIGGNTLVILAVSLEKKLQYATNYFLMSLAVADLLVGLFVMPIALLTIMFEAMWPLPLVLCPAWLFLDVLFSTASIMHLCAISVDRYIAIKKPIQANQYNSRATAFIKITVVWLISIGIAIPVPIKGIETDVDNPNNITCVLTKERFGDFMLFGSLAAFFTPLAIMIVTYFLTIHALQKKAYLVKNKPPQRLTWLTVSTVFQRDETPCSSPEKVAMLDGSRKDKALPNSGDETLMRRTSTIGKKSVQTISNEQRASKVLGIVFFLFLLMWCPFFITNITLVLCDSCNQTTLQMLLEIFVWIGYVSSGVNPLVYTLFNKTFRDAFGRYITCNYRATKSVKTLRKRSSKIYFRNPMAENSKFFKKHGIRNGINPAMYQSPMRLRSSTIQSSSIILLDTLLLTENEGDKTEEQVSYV

SMILES	AC50 (Acetylcholinesterase) [µM]	AC50 (Adenosine receptor A3) [µM]	AC50 [1] [µM]	AC50 (D(1A) dopamine receptor) [µM]	AC50 (D(3) dopamine receptor) [µM]	AC50 (Prothrombin) [µM]	AC50 (Histamine H3 receptor) [µM]	AC50 [2] [µM]	AC50 [3] [µM]	AC50 (Mu-type opioid receptor) [µM]	AC50 (Progesterone receptor) [µM]	AC50 [4] [µM]	AC50 [5] [µM]	AC50 [6] [µM]	AC50 [7] [µM]	AC50 (Thromboxane A2 receptor [8]) [µM]	AC50 (Thromboxane A2 receptor [9]) [µM]
C[C@@H]1O[C@@H](OC[C@H]2O[C@@H](Oc3c(-c4ccc(OCCO)c(OCCO)c4)oc4cc(OCCO)cc(O)c4c3=O)[C@H](O)[C@@H](O)[C@@H]2O)[C@H](O)[C@H](O)[C@H]1O [TROXERUTIN]	> 30	7.52	> 30	> 30	> 30	> 30	> 30	> 30	> 30	> 30	> 30	> 30	22.4	> 30	> 30	> 30	> 30
CCCC[N+]1(C)[C@@H]2C[C@@H](OC(=O)[C@H](CO)c3ccccc3)C[C@H]1[C@@H]1O[C@@H]12 (stereo not given in full) [BUTYLSCOPOLAMINE]	> 30	> 30	> 30	> 30	> 30	> 30	> 30	> 30	2.8	> 30	> 30	> 30	> 30	> 30	> 30	> 30	> 30
CC[C@@H]1/C=C(\C)C[C@H](C)C[C@H](OC)[C@H]2O[C@@](O)(C(=O)C(=O)N3CCCC[C@H]3C(=O)O[C@H](/C(C)=C/[C@@H]3CC[C@H](Cl)[C@H](OC)C3)[C@H](C)[C@@H](O)CC1=O)[C@H](C)C[C@@H]2OC [PIMECROLIMUS]	> 30	5.19	> 30	> 30	> 30	> 30	> 30	> 30	> 30	> 30	> 30	> 30	> 30	> 30	> 30	> 30	> 30
CC(C(=O)O)c1ccc2c(c1)Cc1cccnc1O2 (stereo not given) [PRANOPROFEN]	> 30	> 30	> 30	> 30	> 30	> 30	> 30	> 30	> 30	> 30	> 30	0.478	0.702	> 30	> 10	> 30	> 30
CCC(Cc1c(I)cc(I)c(N)c1I)C(=O)O (stereo not given) [IOPANOIC ACID]	> 30	> 30	24.2	> 30	> 30	> 30	> 30	> 30	> 30	> 30	> 30	> 30	> 30	> 30	> 30	> 30	14.4
Nc1nc(-n2cc(C(=O)O)c(=O)c3cc(F)c(N4CC(O)C4)c(Cl)c32)c(F)cc1F [DELAFLOXACIN]	> 30	> 3	> 30	> 30	> 30	> 30	> 30	> 30	> 30	> 30	> 30	> 30	> 30	> 30	> 30	> 30	> 30
CN1CCC2=C(C1)c1ccccc1Cc1ccccc12 [SETIPTILINE]	> 30	> 30	0.231	0.0882	0.543	> 30	> 30	> 30	13	12.8	> 30	> 30	> 30	24.1	8.15	> 30	> 30
O=C1CN=C(c2ccccc2)c2c(sc3c2CCCC3)N1 [BENTAZEPAM]	> 30	14.3	12.4	> 30	> 30	> 30	> 30	> 30	> 30	> 30	14.8	> 30	> 1	> 30	> 30	> 30	> 30
O=C(O)c1cccc(-c2noc(-c3ccccc3F)n2)c1	> 30	> 30	> 30	> 30	> 30	> 30	> 30	> 30	> 30	> 30	> 30	> 30	> 30	> 30	> 30	> 30	> 30
CCOC(=O)C(c1c(O)c2ccccc2oc1=O)c1c(O)c2ccccc2oc1=O [ETHYL BISCOUMACETATE]	> 30	17.3	> 30	> 30	> 30	> 30	> 30	> 30	> 30	> 30	> 30	> 30	> 30	> 30	> 30	> 30	> 30
